Measured values as given in article PMC6085350, “Small molecule inhibitors of RAS-effector protein interactions derived using an intracellular antibody fragment” (Nature Communications, 2018).
“Also recorded” adds a separate entry of the source.

What was measured:
[1] = molecular target: T1, KRAS^G12V-GppNHp + scFv complex (Homo sapiens, UniProt P01116, G12V); test: waterLOGSY NMR competition with anti-RAS scFv; assay type: binding
T1 construct: GST (N); made in house; host or cells: E. coli
Method: The waterLOGSY NMR method[35] was used to measure RAS ligand interaction. WaterLOGSY experiments were conducted at a ^1H frequency of 600 MHz using a Bruker Avance spectrometer equipped with a BBI probe. All experiments were conducted at 298 K, 3 mm diameter NMR tubes with a sample final volume of 200 µl was used in all experiments. Solutions were buffered using an H2O 10 mM PBS, 5 mM MgCl2 buffer corrected to pH 7.4. The sample preparation is exemplified as follows, the compound (10 µl of a […] solution in DMSO-d6) was added to an eppendorf before sequential addition of the H2O PBS buffer (163.6 µl), D2O (20 µl), and protein (6.4 µl, 311.8 µM). The resulting solution was spun to ensure full mixing and transferred to a 3 mm NMR tube before running the experiment. For a competition experiment using Y6-scFv or VH, the preparation was carried out in a similar manner; the compound (10 µl of a 10 mM solution in DMSO-d6) was added to an eppendorf before sequential addition of the H2O PBS buffer (146.4 µl), D2O (20 µl), protein (6.4 µl, 311.8 µM) and Y6-ScFv (17.2 µl, 116.6 µM) with a ratio of 5.5:1:1. The resulting solution was spun and transferred to a 3 mm NMR tube before the run. […]
Supplementary Figure 3: Abd-2 WaterLOGSY NMR with and without anti RAS-scFV Abd-2 was analyzed by waterLOGSY. […]

[2] = system: AKT phosphorylation (Ser473) in H358 cells (KRAS^G12C); test: Biomarker phosphorylation assay, pAKT, H358; assay type: cell-based, human; conditions: EGF 10 min
Method: Fig. 5 Abd-7 results on RAS-dependent signalling pathways and cell viability. a, b DLD-1 (a) or H358 (b) cells were serum-starved for 24 h, incubated in mono-layer with Abd-7 in a range from 2, 5, 10 and 20 μM for 3 h and stimulated with EGF 10 min. Proteins were extracted and separated by SDS-PAGE and transferred to membranes for Western analysis with anti-pAKT, anti-pERK, anti-pan AKT and anti-pan ERK. Anti-cyclophilin B antibody was the loading control. Signal was developed using standard ECL. c–e Effects of compounds Abd-2, Abd-4, Abd-5, Abd-6, and Abd-7 on the viability of human cancer cells lines was assessed for a 2-D culture of DLD-1 (mutant KRAS^G13D) cells and HT1080 cells (mutant NRAS^Q61K). The cells were treated with a dose range from 0 μM to 20 μ and incubated for 72 h when cell viability was assessed using CellTitreGlo. […] Each experiment was repeated at least three times (a, b) and four times (c, d). Where error bars are presented, they correspond to mean values ± SD of biological repeats
A total of 450,000 DLD1 or 640,000 H358 cells were seeded per well of a six well plate. Approximately, 20 h later, the medium was removed, the cells washed twice with PBS and DMEM without FBS was added and left for 24 h. The medium was removed and 2 ml of DMEM no FBS was added with the appropriate concentration of compound (DMSO, 2, 5, 10 or 20 μM) for 3 h. Cells were stimulated with EGF (50 ng/ml) for 10 min, washed once with PBS and directly lysed in SDS-Tris buffer (1% SDS, 10 mM Tris-HCl pH 7.4) supplemented with protease inhibitors (Sigma) and phosphatase inhibitors (Thermo-Fisher). Cell lysates were sonicated with a Branson Sonifier and the protein concentrations determined by using the Pierce BCA protein assay kit (Thermo-Fisher). Furthermore, 10 μg of protein were resolved on 10 or 12.5% SDS-PAGE and subsequently transferred onto a PVDF membrane (GE). The membrane was blocked (with 10% non-fat milk (Sigma) or 10% BSA (Sigma) in TBS-0.1% Tween20) and incubated overnight with primary antibody at 4 °C. […]

PI3KC2 = test: Kinase panel (KinaseProfiler), first PI3KC2 line; assay type: biochemical, human; conditions: PI3KC2 (first of two lines), 10μM
Method: Experiments were performed by Eurofins Pharma Discovery Services. The KinaseProfiler™ assay protocol guide can be downloaded from their website: www.eurofins.com/discoveryservices. The guide contains information on the buffer conditions, substrate and reference inhibitor blank used for each kinase.
Supplementary Table 3. Assessment of potential interaction of Abd-7 with a human kinase
Kinase % kinase activity in
A panel of 14 Kinases (relevant to the RAS pathway) has been screened against Abd-7
(10μM) and the kinase activity was measured. […] of activity was observe for all
function of the selected and RAS relevant kinase proteins.

SMILES | binding to KRAS^G12V-GppNHp in the presence of anti-RAS scFv (waterLOGSY) [1] | inhibition of AKT phosphorylation ([2]; H358, 20 μM, 3 h) | concentration at which inhibition of AKT phosphorylation initiates ([2]; H358, starved 24 h, 3 h compound, Western) [µM] | inhibition at 10 µM ([2]; Homo sapiens, NCI-H358, H358, 10 μM, 3 h) [%] | % kinase activity in the presence of Abd-7 (PI3KC2) [%]
O=C(NCC1COc2ccccc2O1)c1ccco1 (centres unmarked) [Abd-2] | no longer binds; also recorded: no binding |  |  |  | 
COc1nc(-c2cccc3c2OCCO3)ccc1Nc1ccc(CN(C)C)cc1 [Abd-7] |  | complete inhibition | 2 | > 50 | 102
